# Measurements published in PMC6444592, “Citrullination of HP1γ chromodomain affects association with chromatin” (Epigenetics & Chromatin, 2019).
# Legend:
# H1.2 = settings: reprogramming and ground state pluripotent stem cells; cited from earlier work
# Description: We previously identified a role for PADI4 during reprogramming and ground state pluripotent stem cells, where the deiminase regulates key pluripotency genes via a mechanism involving citrullination of H1.2. […] Here, we report that the chromodomain of HP1γ is also citrullinated in mESCs, at R38 and R39. […] Furthermore, mutations in HP1γ designed to mimic the loss of charge caused by citrullination inhibit binding ...
# methylated H3K9 = settings: at gene promoters; cited from earlier work
# Description: It is possible that PADI4 targets both H3R8 and HP1γ bound to the same H3N-terminal tail. The Nanog gene may represent an important example of such a locus, since chromatin immunoprecipitation experiments have shown that both HP1γ and PADI4 bind to its promoter and regulate gene expression in stem cells.
# histone H3 = experiment: citrullination of histone H3 by PADI4; format: biochemical; settings: calcium, anti-H3R2-citrulline and Pan-Cit immunoblot
# Procedure: For immunoblotting, cells were lysed in 2 × Laemmli buffer and sonicated in a water bath (Fisherbrand) for 3 min to shear genomic DNA, spun down at full speed in a microfuge for 15 min and incubated for 5 min at 95 °C. Proteins were resolved by SDS-PAGE, transferred to nitrocellulose membrane (Millipore) using wet transfer (transfer buffer: 192 mM glycine, 25 mM Tris.HCl pH8.8) and incubated in blocking solution (5% BSA in TBS containing 0.5% Tween-20 for citrulline sensitive antibodies and 5% non-fat milk powder in TBS containing 0.1% Tween-20 for all other antibodies) for 1 h at room temperature (RT). Membranes were incubated with primary antibody at 4 °C o/n and appropriate HRP-conjugated secondary antibody for 1 h at RT. Membranes were then incubated for enhanced chemiluminescence (ECL, Promega), and proteins were detected by exposure to X-ray film or using the ChemiDoc™ MP imaging system (Bio-Rad). Images were quantified using ImageJ analysis software. Primary antibodies diluted in blocking solution were used to detect citrullinated histone H3R2 (H3R2-Cit, Abcam ab176843 at 1:1000 dilution), HP1γ (Millipore 05-690 MAB clone 42s2 [16] at 1:1000 dilution), β-Tubulin (Abcam ab6046 at 1:1000 dilution) and peptidyl-citrulline (Millipore MABN328, clone F95 [48] at 1:1000 dilution). […]
substance,measurement,setting,value
Peptidylarginine deiminase 4 [PADI4],effect of H1.2 citrullination,H1.2,eviction from chromatin and global chromatin decompaction
same,effect of H3R8 citrullination on HP1 binding to adjacent methylated H3K9,methylated H3K9,reduces the binding affinity of HP1 to adjacent methylated H3K9
same,enzymatic activity of recombinant PADI4 on histone H3,histone H3,confirmed by citrullination of histone H3
